# Data reported in ChEMBL document CHEMBL1128386, “Structure-activity relationships of milrinone analogues determined in vitro in a rabbit heart membrane Ca(2+)-ATPase model” (J Med Chem, 1995).
# Species on record: Oryctolagus cuniculus
# Assay: Activity against [Ca2+]-ATPase assay in rabbit myocardial membrane.
# Type: cell membranes
# Conditions: Myocardium
row,Compound,Activity
1,Nc1cc(-c2ccncc2)c[nH]c1=O,1.4 µM
2,Cc1nc(O)c(N)cc1-c1ccncc1,6 µM
3,Cc1[nH]c(=O)c(C#N)cc1-c1ccncc1,10.7 µM

# Results, then the compound that gave them:
row,Activity,Compound
1,0.03 µM,Cc1cnccc1-c1cnc(O)c(N)c1
2,0.5 µM,Cc1cnccc1-c1cnc(O)c(C#N)c1
3,3.3 µM,Cc1cnccc1-c1cc(C#N)c(O)nc1C
4,6.6 µM,Cc1nc(O)c(Br)cc1-c1ccncc1
